Measured values published in PMC10975748.

What was measured:
[1] = system: anti-TTX monoclonal antibody; assay type: binding
[2] = analogues purified from pufferfish liver; patch clamp
[3] = system: isolated mouse phrenic-nerve-hemi-diaphragm muscle preparations; assay: Nerve-evoked isometric contraction, reversal of CiTX neuromuscular block; settings: 100 µM, in continuous presence of GYM-A, PnTX-A, PnTX-G or PteTX-1
[4] = target: T1, muscle-type α12βεδ nAChRs (Mus musculus, UniProt P02716+P04756+P20782); assay: Nerve-evoked isometric contraction, block by cyclic imine toxins
T1 construct: skeletal muscle expressing α12βεδ nAChRs; from tissue; host or cells: isolated mouse phrenic-nerve-hemi-diaphragm muscle

[5] = system: mice injected with venoms; assay: Recovery from neuroparalysis in mice injected with neurotoxic snake venoms; assay type: in vivo
Text: (§1) Abstract: Envenomation by snakes is a major neglected human disease even though it affects millions of people with sequelae and kills hundreds of thousands of them. A large toll is taken by snakes that inject neurotoxic venoms capable of inducing complete degeneration of motor axon terminals with rapid development of a peripheral neuroparalysis with severe respiratory deficit. The major venom component causing this degeneration are presynaptic acting PLA2s that hydrolyse phospholipids in lysophospholipids and fatty acids that induce large entry of Ca^2+ into the neuronal cytosol. This leads to the activation of endogenous hydrolases that cause a complete degeneration of the motor axon terminals, which is followed by a regeneration program, only partially known in molecular terms. We recently identified two types of membrane receptors involved in the regeneration of the paralysed neuromuscular junction (NMJ). Here we report that this paralysis activates a proregenerative molecular axis, consisting of the CXCR4 receptor expressed at the stump of degenerated motor axon terminals and by the release of its ligand CXCL12α by surrounding Schwann cells. […]

[6] = Text: as §1
CB1 receptors = target: T2, CB1 receptors (Homo sapiens, UniProt P21554); assay: Two-electrode voltage-clamp, CB1-GIRK1/2-RGS4 system in Xenopus laevis oocytes; assay type: cell-based; settings: GIRK1/2 currents induced by WIN55,212-2, Xenopus oocytes
T2 construct: expressed in transfected cells; host or cells: Xenopus laevis oocytes
Text: (§2) Abstract: Cannabinoid receptors (CB1 and CB2) are promising targets for diverse diseases, such as pain, inflammation, and neurological diseases. However, only a few ligands of CB receptors have reached clinical application so far. In the present study, we focused on the venom of Stephanoconus snails and found an endocannabinoid-like molecule, oleoyl serotonin (OS), active on CB1 and CB2. To determine the effects of OS, CB1 and CB2 receptors were functionally expressed in Xenopus laevis oocytes, together with the G protein-coupled inwardly rectifier potassium channels (GIRK1/2), and a regulator of G protein signalling (RGS4). Ion currents were measured with a two-electrode voltage-clamp system. […] To the best of our knowledge, OS is the first venom-derived ligand modulating CB receptors. […]. To investigate the critical domains of the CB receptor for OS activity, we constructed a chimeric CB1/2 receptor by replacing the transmembrane domain V (TMV)-intracellular loop 3 (ICL3)-TMVI domain (TMV-ICL3-TMVI) of the CB2 receptor with that of the CB1 receptor. […] This study highlights the potential of animal venom components as a promising library for the discovery of novel CB receptor ligands.

CB2 receptors = target: T3, CB2 receptors (Homo sapiens, UniProt P34972); assay: Two-electrode voltage-clamp, CB2 with GIRK1/2 and RGS4 in Xenopus laevis oocytes; assay type: cell-based; settings: GIRK1/2, RGS4
T3 construct: expressed in transfected cells; host or cells: Xenopus laevis oocytes
Text: as §2

[7] = system: serotonin, histamine, opioid and nicotinic receptors, TRP channels or voltage-gated sodium, potassium or calcium channels; assay: Selectivity of OS on other receptors and channels; assay type: cell-based
mice = assay: In vivo evaluation of OS on brain-related neurological functions
human mitoTRPV1 = human mitoTRPV1 (Homo sapiens, UniProt Q8NER1); assay type: cell-based
Sequence of human mitoTRPV1 (Q8NER1 434-839): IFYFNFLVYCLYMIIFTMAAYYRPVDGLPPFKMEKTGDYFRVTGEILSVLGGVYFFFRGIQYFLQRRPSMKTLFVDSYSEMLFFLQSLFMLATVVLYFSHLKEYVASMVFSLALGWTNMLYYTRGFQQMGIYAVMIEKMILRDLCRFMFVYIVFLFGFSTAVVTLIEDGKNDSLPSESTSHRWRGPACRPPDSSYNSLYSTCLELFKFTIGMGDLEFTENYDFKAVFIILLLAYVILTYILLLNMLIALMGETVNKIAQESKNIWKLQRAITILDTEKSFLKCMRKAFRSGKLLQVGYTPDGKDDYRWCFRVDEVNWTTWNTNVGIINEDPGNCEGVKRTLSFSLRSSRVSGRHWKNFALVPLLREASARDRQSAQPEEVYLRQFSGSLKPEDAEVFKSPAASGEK

T1 sequence (P09690 24-501): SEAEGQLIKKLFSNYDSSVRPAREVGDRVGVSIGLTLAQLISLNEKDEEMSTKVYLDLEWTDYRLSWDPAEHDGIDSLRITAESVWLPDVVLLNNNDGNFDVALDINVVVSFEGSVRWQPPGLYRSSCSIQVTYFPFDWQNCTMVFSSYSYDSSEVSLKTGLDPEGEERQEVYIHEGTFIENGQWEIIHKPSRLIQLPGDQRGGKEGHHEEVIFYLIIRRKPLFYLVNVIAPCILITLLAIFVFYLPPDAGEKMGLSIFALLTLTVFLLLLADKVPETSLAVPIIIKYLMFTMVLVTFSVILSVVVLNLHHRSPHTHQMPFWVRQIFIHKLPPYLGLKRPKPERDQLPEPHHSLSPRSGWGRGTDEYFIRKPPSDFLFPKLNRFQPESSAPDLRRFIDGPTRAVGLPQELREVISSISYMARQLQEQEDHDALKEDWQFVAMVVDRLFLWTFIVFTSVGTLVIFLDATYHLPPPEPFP
T1 sequence (P02716 25-520): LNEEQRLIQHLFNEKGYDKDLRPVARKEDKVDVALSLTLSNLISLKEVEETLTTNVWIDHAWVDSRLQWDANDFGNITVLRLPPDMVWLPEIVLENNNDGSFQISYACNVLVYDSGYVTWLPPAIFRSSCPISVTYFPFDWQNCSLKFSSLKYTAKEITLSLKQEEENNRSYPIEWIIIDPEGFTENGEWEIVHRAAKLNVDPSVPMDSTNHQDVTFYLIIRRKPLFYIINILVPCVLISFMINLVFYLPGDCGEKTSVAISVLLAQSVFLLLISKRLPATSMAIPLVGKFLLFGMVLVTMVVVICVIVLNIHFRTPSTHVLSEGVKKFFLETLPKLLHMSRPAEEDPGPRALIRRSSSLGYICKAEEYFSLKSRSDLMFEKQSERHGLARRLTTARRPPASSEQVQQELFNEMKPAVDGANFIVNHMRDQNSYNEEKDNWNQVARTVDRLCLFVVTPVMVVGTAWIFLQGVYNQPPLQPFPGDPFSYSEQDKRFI
T1 sequence (P04756 21-457): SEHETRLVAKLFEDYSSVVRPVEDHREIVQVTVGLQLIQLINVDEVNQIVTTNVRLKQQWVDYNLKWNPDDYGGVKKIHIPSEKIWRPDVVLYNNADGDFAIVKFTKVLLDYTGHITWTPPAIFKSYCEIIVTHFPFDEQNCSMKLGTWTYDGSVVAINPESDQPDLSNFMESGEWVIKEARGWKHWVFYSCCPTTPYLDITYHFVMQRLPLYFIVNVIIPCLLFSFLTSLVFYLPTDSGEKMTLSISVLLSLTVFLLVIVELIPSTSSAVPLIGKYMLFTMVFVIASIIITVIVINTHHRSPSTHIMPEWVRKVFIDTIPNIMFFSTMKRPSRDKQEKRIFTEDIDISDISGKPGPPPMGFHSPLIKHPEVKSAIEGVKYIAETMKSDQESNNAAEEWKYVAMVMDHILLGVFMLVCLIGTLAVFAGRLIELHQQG
T1 sequence (P20782 21-493): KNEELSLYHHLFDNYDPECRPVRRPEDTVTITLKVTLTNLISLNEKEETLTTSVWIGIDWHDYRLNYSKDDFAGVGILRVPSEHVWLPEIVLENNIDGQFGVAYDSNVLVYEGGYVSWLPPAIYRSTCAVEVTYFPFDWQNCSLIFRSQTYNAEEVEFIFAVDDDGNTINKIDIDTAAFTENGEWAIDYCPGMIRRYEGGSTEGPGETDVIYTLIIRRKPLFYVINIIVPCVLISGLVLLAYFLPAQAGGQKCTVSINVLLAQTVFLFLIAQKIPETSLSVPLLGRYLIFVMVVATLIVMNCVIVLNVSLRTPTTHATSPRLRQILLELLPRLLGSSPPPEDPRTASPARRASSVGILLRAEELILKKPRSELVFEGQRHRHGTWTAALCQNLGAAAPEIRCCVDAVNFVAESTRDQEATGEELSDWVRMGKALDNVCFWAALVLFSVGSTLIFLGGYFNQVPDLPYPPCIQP
T2 sequence (P21554 whole entry): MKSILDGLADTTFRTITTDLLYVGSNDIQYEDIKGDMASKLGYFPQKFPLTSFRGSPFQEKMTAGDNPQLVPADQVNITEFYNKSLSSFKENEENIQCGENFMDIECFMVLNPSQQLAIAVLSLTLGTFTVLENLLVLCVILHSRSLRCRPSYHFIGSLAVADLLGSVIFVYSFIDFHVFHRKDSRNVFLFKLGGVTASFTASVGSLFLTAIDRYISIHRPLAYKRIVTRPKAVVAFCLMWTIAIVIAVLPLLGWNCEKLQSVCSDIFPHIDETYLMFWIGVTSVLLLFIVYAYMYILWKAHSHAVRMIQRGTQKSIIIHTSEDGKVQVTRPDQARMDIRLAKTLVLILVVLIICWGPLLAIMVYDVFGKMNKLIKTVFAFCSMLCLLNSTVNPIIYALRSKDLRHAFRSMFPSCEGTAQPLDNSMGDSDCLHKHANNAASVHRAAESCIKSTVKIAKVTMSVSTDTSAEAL
T3 sequence (P34972 whole entry): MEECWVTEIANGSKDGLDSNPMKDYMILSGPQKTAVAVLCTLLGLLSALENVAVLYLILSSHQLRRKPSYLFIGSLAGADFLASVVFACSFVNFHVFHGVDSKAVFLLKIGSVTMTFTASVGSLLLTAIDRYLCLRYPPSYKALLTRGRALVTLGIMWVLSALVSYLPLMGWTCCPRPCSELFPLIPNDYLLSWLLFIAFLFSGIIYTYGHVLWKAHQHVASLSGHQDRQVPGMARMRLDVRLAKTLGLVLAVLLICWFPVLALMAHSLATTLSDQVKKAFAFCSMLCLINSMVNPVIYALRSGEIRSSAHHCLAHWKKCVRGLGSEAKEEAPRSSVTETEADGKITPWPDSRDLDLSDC

5,6,11-trideoxyTTX
cross-reactivity (cross-reactivity factors, CRFs) [1]: lower
toxicity (toxicity equivalency factors, TEFs) [2]: lower

5,11-dideoxyTTX
cross-reactivity (cross-reactivity factors, CRFs) [1]: lower

Nc1ccncc1N [3,4-DAP, 3,4-Diaminopyridine]
reversal of neuromuscular block caused by the CiTX [3]: completely reverses

CC1=C[C@@H](C2=C(C)[C@@H]3/C=C(\C)[C@@H](O)CC[C@@H]4C[C@@H](C)[C@@H](O4)/C(C)=C/CCC4=NCCC[C@@]43CC2)OC1=O [GYM-A]
type of inhibition of α12βεδ nAChRs [4]: competitive and reversible inhibitors

CCCn1nc(C(=O)N2CCCCC2)c2c1CCC(NCCc1ccncc1)C2 (centres unmarked) [NUCC-390]
time of recovery from neuroparalysis ([5]; determined by imaging, electrophysiological methods and lung ventilation): shortens the time of recovery from neuroparalysis
efficacy in mice injected with venoms ([5]; venoms of three Bungarus species, Oxyuranus scutellatus, Micrurus nigrocinctus, Vipera ammodytes and V. aspis): very effective
blood brain barrier crossing [6]: does not cross the blood brain barrier
toxicity [6]: non-toxic

CCCCCCCC/C=C\CCCCCCCC(=O)NCCc1c[nH]c2ccc(O)cc12 [OS, oleoyl serotonin]
mode of action on CB1 receptors (CB1 receptors): competitive antagonist
mode of action on CB2 receptors (CB2 receptors): non-competitive blocker
activity on other receptors and channels [7]: does not show significant activity
effect on brain-related neurological functions (mice): anxiolytic effect

C=C1CCCC2=NC[C@H](C)[C@@H](C)C[C@@]23CCC(C(=O)O)=C[C@@H]3[C@@H]2O[C@]3(C[C@H]4CCC[C@@]5(CC[C@@]6(O[C@@H](CC[C@@]6(C)O)C1)O5)O4)C[C@@H](C)[C@@H](O)[C@H]2O3 [PnTX-A]
type of inhibition of α12βεδ nAChRs [4]: competitive and reversible inhibitors

C=CC1=C[C@@H]2[C@@H]3O[C@]4(C[C@H]5CCC[C@@]6(CC[C@@]7(O[C@@H](CC[C@@]7(C)O)CC(=C)CCCC7=NC[C@H](C)[C@@H](C)C[C@@]72CC1)O6)O5)C[C@@H](C)[C@@H](O)[C@H]3O4 [PnTX-G]
type of inhibition of α12βεδ nAChRs [4]: competitive and reversible inhibitors

C=C(C)[C@]12C[C@@H](C)[C@@]34O[C@](Cc5ccccc5)(O[C@@H]1[C@@H]3C=C(COC(=O)Cc1ccc(O)c(OC)c1)C[C@]1(O)C(=O)C(C)=C[C@@H]41)O2 [RTX, resiniferatoxin]
mitochondrial Ca2+ efflux (human mitoTRPV1): enhanced a Ca^2+ efflux from the mitochondria
mitochondrial temperature (human mitoTRPV1): significant reduction in the mitochondrial temperature
